Patent publication US10987317B2, “Inhibition of glutaminase C” (Cornell University, priority 2009, dated 2021)

Tests used:
[1] = tested on: GA activity in MDA-MB231 cells; test: GA activity in mitochondrial fractions; format: cell-based, human; settings: 10 μM, phosphate-independent
Experimental: 100%=620 moles of glutamine hydrolyzed per minute per mole of enzyme. Data represent the average of 3 experiments (±s.d.). […] Following precipitation of the beads and re-suspension, the samples are analyzed by Western blotting with anti-V5 antibody. […] Data represent the average of 3 experiments (±s.d.). […] Data represent the average of 3 experiments (±s.d.). […] Data represent the average of 3 experiments (±s.d.). FIG. 3E NIH 3T3 cells transiently expressing Dbl are assayed for focus formation in the presence of 10 μM 968 alone or together with […] dimethyl α-ketoglutarate. […] 100%=680 nM glutamine hydrolyzed per minute per 10^5 cells. Data are the average of 3 experiments (=s.d.). […] 100%=750 nM glutamine hydrolyzed per minute per 10^5 cells. Data represent the average of 3 experiments (±s.d.).
FIGS. 11A-E illustrate the effects of different treatments on GA activity. […] The addition of Pi stimulated the GA activity in control 3T3 cells, Dbl-expressing cells, and Cdc42(F28L)-expressing cells by ˜6-fold, 2-fold, and 3-fold, respectively. 100% represents the Pi-stimulated activity measured for Dbl-transformed cells that are not treated with 968. […] The data are plotted as the percentage of GA activity measured for untreated SKBR3 cells and represent the average of 2 experiments. […] 100% represents the P1-stimulated activity measured for untreateDbl-transformed cells. […]

[2] = tested on: NIH 3T3 cells transfected with oncogenic Dbl; test: Dbl-induced cellular transformation (focus-forming assays, growth in low serum, soft agar); format: cell-based
Experimental: FIGS. 1A-E illustrate that the small molecule 968 inhibiting cellular transformation. […] Cells were fixed and stained with crystal violet for counting of foci. Right: 968 was serially diluted (10, 5, 2.5, and 1.25 μM) and evaluated for its ability to inhibit focus formation. […] After 6 days, the cells are counted. 100% represents the number of Dbl-transformed cells counted in the absence of 968 (27.5×10^4 cells). Data represent the average of 3 experiments (±s.d.). […] At the indicated times, the cells are counted. Data represent the average of 3 experiments (±s.d.).
FIGS. 2A-G illustrate effects of 968 on the transforming activity of constitutively active Rho GTPases and human breast cancer cells. […] Cells are scored after 14 days and plotted as the percentage of the total number of colonies greater than […] in diameter. Data represent the average of 3 experiments (±s.d.). […] Data represent the average of 3 experiments (±s.d.). […] Data represent the average of 3 experiments (±s.d.). […] After 24 hours at 37° C. the migratory cells are fixed, stained with GIEMSA, and counted. Data represent the average of 3 experiments (±s.d.). […] Data represent the average of 3 experiments (±s.d.). […] Data represent the average of 3 experiments (±s.d.). […] Data represent the average of 3 experiments (±s.d.).
FIGS. 5A-C illustrate comparative abilities of 968 and other benzo[a]phenanthrldinones to inhibit the transforming activity of oncogenic Dbl and H-Ras. […] Histograms show the relative levels of Dbl-induced focus formation for the different treatments, compared to Dbl-induced focus formation measured in the presence of DMSO (i.e. solvent control). Data represent the average of 3 experiments (mean±s.d.). […] Histograms show the relative levels of Ras(G12V)-induced focus formation measured for the different treatments, compared to Ras(G12V)-induced focus formation measured in the presence of DMSO (solvent control). Data represent the average of 3 experiments (mean±s.d.). FIG. 5C NIH 3T3 cells stably expressing H-Ras(G12V) that are cultured in DMEM supplemented with 1% calf serum, with the indicated amounts of 968. After 6 days, cells are trypsinized and counted. 100% represents the number of cells counted in the absence of 968, i.e. 26×10^4 cells. Data represent the average of 3 experiments (mean±s.d.).

## CN(C)c1ccc(C2Nc3ccc4ccccc4c3C3=C2C(=O)CC(C)(C)C3)cc1Br (stereo not shown) [Compound 968, 5-[3-bromo-4-(dimethylamino)phenyl]-2,2-dimethyl-2,3,5,6-tetrahydrobenzo[a]]
[1]
  basal GA activity: sensitive
[2]; 10 μM
  Dbl-induced colony formation in soft agar: blocked
[2]; focus-formation, 10 μM 968 with 7 μM dimethyl α-ketoglutarate
  reversal of 968-inhibition by cell-permeable analog of α-ketoglutarate: circumvented
[2]; focus-forming assays or growth in low serum
  concentration at which active in blocking Dbl-induced transformation: 1 to 10 µM
